Test results reported in PMC8545111, “Molecular Basis of the Versatile Regulatory Mechanism of HtrA-Type Protease AlgW from Pseudomonas aeruginosa” (mBio, 2021).
Several values for one entry are separate records, joined by “and”; a condition that tells them apart may be missing. Equal entries are not always repeated. Non-standard residues stand in square brackets, D forms with d. Residues, ends and D or L forms follow the SMILES beside them. *: point of attachment. pNA = O=[N+]([O-])c1ccc(N*)cc1; 2Abz = Nc1ccccc1C(=O)O

Columns and labels:
[1] = test system: DegS; experiment: Rse- protease degradation assay; assay type: biochemical, Escherichia coli; conditions: DegS 25 μM, phosphate buffer pH 7.5, 37°C
Description: (§1) FIG 1 Degradation of MucA and MucB by AlgW in response to the peptides and lipid signals. (A and B) MucB/RseB (130 μM) was cleaved by AlgW/DegS (25 μM) in the presence of different agonist combinations, including lipid-A (100 μM), lipid-like detergent DDM (400 μM), decapeptide SVRDELRWVF (100 μM), and decapeptide combined with lipid-A or DDM. (C and D) MucB/RseB-protected MucA^peri/RseA^peri degradation by AlgW/DegS in the presence of different lengths of the activating peptides in a time-dependent manner. MucA^peri (125 μM), AlgW (25 μM), MucB (130 μM), activation peptides (tripeptide WVF or decapeptide SVRDELRWVF, 100 μM), and lipid-A (100 μM) were incubated at 37°C in a time-dependent manner in buffer (25 mM Tris-HCl pH 7.5, 150 mM NaCl). Similarly, RseA^peri (125 μM) was cleaved by DegS (25 μM) in the presences of RseB (130 μM), activation peptides (tripeptide YYF or decapeptide DNRDGNVYYF, 100 μM), and lipid-A (100 μM) at 37°C in a time-dependent manner in a phosphate buffer containing 50 mM NaHPO4 (pH 7.5), 200 mM NaCl, 10% glycerol, and 4 mM EDTA. (E and F) MucA^peri/RseA^peri was cleaved by AlgW/DegS in the presence of different agonist combinations in a time-dependent manner. MucA^peri (125 μM), AlgW (25 μM), activation decapeptide SVRDELRWVF (100 μM), and lipid-A (100 μM) were incubated at 37°C in a time-dependent manner in buffer. […]

[2] = test system: AlgW; experiment: Muc- protease degradation assay; assay type: biochemical, Pseudomonas aeruginosa; conditions: MucB 130 μM, AlgW 25 μM; lipid-A 100 μM, DDM 400 μM or decapeptide 100 μM; 25 mM Tris-HCl pH 7.5, 150 mM NaCl, 37°C; 30 min; gel bands
Description: as §1

[3] = biological target: T1, AlgW (Pseudomonas aeruginosa, UniProt Q9HVX1); experiment: Activation of 200 nM AlgW cleavage of 100 μM Abz-VLAG-pNA by a DDM gradient without agonist peptide, 25 mM Tris pH 7.5, 150 mM NaCl, 37°C, Hill-type fit.; assay type: biochemical; conditions: n = 3; read-out: Half-Maximal Activation concentration (μM), DDM gradient
T1 construct: soluble periplasmic region, residues 30-389, pET22b with PreScission-cleavable 6xHis; trimer
Description: FIG 2 Determination of enzyme apparent kinetic parameters of dual-signal-activated AlgW. (A) Activity assay of tripeptide or decapeptide-activated AlgW using the quenched fluorescent substrates Abz-VLAG-pNA, Abz-TVAW-pNA, and Abz-AAAA-pNA. All assays were placed in a buffer containing 25 mM Tris (pH 7.5) and 150 mM NaCl at 37°C for 1 h by adding 100 μM substrate, 200 nM AlgW, and 10 mM agonist peptides (tripeptide WVF or decapeptide SVRDELRWVF). (B) The apparent Michaelis-Menten parameters of AlgW cleavage quenched fluorescent substrates Abz-VLAG-pNA (100 μM) under the condition of peptide or lipid activation. (C) The activity assay of peptide or DDM activated AlgW using the saturated quenched fluorescent substrates Abz-VLAG-pNA. […] The final assay volume of all experiments was 100 μl, and the appearance of fluorescent products was monitored at 60-s intervals at fluorescence wavelengths of λex = 310 nm and λem = 420 nm. […] The Kcat for the AlgW trimer was calculated by Kcat = Vmax/(Etotal), (Etotal) = 200/3 nM trimers. […]
In the presence of a fixed amount of AlgW and saturated substrate, we measured the initial rates of AlgW at various concentrations of decapeptide or DDM (Fig. 2C). […]

[4] = test system: AlgW; experiment: AlgW activation by agonist gradient (agonists versus velocity), saturated Abz-VLAG-pNA; assay type: biochemical, Pseudomonas aeruginosa; conditions: 100 μM Abz-VLAG-pNA, 200 nM AlgW
Description: FIG 2 Determination of enzyme apparent kinetic parameters of dual-signal-activated AlgW. (A) Activity assay of tripeptide or decapeptide-activated AlgW using the quenched fluorescent substrates Abz-VLAG-pNA, Abz-TVAW-pNA, and Abz-AAAA-pNA. All assays were placed in a buffer containing 25 mM Tris (pH 7.5) and 150 mM NaCl at 37°C for 1 h by adding 100 μM substrate, 200 nM AlgW, and 10 mM agonist peptides (tripeptide WVF or decapeptide SVRDELRWVF). (B) The apparent Michaelis-Menten parameters of AlgW cleavage quenched fluorescent substrates Abz-VLAG-pNA (100 μM) under the condition of peptide or lipid activation. (C) The activity assay of peptide or DDM activated AlgW using the saturated quenched fluorescent substrates Abz-VLAG-pNA. Under the gradient of peptide or DDM concentration,100 μM substrate and 200 nM AlgW were coincubated with or without 400 μM DDM or 10 mM agonist peptides in a buffer containing 25 mM Tris (pH 7.5) and 150 mM NaCl at 37°C for 1 h. The final assay volume of all experiments was 100 μl, and the appearance of fluorescent products was monitored at 60-s intervals at fluorescence wavelengths of λex = 310 nm and λem = 420 nm. […] The Kcat for the AlgW trimer was calculated by Kcat = Vmax/(Etotal), (Etotal) = 200/3 nM trimers. […]
(§2) For the enzyme mechanism of AlgW (30–389) and mutants, two internally quenched fluorescent peptide substrates incorporating the peptidase cleavage site of MucA/MucB, Abz-VLAG-pNA and Abz-TVAW-pNA, were designed and synthesized (GL Biochem Shanghai Ltd., China). In the intact peptide, the fluorescence of the anthraniloyl group is quenched by the P-nitroaniline (Abz is a fluorogenic group, and pNA is a quencher of fluorescence). This quenched fluorescence is liberated upon cleavage of peptide by 200 nM AlgW and mutants (200/3 nM for trimer), resulting in increased fluorescence that can then be monitored fluorometrically. […] The fluorescent degradation products were monitored at 60-s intervals at fluorescence wavelength—λex = 310 nm, λem = 420 nm ([41]). […]

[5] = test system: T2, AlgW-DegS-LA (63–78); experiment: Fluorogenic Abz-VLAG-pNA cleavage by peptide-activated AlgW and LA loop mutants (200 nM), 25 mM Tris pH 7.5, 150 mM NaCl, 37°C, Michaelis-Menten fit.; assay type: biochemical; conditions: n = 3
T2 construct: residues 30-389; LA loop 76-97 replaced by the corresponding region 63-78 of DegS
Description: Based on the identified MucA and MucB cleavage sites for AlgW ([6], [13]), self-quenching fluorogenic tetrapeptides derived from 134-VLAG-137 of MucA (Abz-VLAG-pNA), 211-TVAW-214 of MucB (Abz-TVAW-pNA), and alanine tetrapeptide (Abz-AAAA-pNA) were synthesized and subjected to real-time measurement of AlgW proteolytic activity in the presence of excessive peptides (10 mM) (Fig. 2A). Compared with the negative-control group (using Abz-AAAA-pNA substrate), both Abz-VLAG-pNA and Abz-TVAW-pNA could be efficiently cleaved by AlgW. […]
as §2

T1 sequence (Q9HVX1 entry or part of it): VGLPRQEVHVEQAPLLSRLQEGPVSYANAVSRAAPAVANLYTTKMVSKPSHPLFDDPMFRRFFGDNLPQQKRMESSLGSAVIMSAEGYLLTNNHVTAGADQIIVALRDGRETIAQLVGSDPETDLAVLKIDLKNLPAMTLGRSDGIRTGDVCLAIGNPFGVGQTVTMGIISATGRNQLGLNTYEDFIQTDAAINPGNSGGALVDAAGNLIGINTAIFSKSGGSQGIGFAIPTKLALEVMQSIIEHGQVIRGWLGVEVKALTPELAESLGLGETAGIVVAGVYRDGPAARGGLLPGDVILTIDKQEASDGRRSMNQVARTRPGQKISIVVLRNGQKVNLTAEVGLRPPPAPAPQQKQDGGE

DNRDGNVYYF
RseB cleavage by DegS ([1]; RseB 130 μM, decapeptide 100 μM): no proteolysis was noticed

CCCCCCCCCCCCO[C@@H]1O[C@H](CO)[C@@H](O[C@H]2O[C@H](CO)[C@@H](O)[C@H](O)[C@H]2O)[C@H](O)[C@H]1O [DDM, N-dodecyl-β-D-maltopyranoside]
MucB cleavage by AlgW [2]: could be activated
EC50 [3]: 92 ± 12.4 µM
Maximal cleavage activity ([4]; DDM gradient with 10 mM decapeptide (AlgW+Decapeptide), Tris pH 7.5, 37°C, 1 h): 717.8 ± 15.07 µM/min
Hill constants ([4]; gradient of the agonist alone): 1.43 and 1.43 ± 0.22
EC50 ([4]; gradient of the agonist alone, Tris pH 7.5, 37°C, Hill fit, three independent determinations, read-out: Half-Maximal Activation concentration): 92 ± 12.4 µM

CC(C)C[C@H](NC(=O)[C@@H](NC(=O)c1ccccc1N)C(C)C)C(=O)N[C@@H](C)C(=O)NCC(=O)Nc1ccc([N+](=O)[O-])cc1 [Abz-VLAG-pNA, anthraniloyl-Val-Leu-Ala-Gly-p-nitroaniline (quenched fluorogenic tetrapeptide, MucA 134-137)] (H-[2Abz]VLAG-pNA)
Km [5]: 12 ± 2.85 µM

lipid-A
RseA^peri degradation by DegS ([1]; RseA^peri 125 μM, lipid-A 100 μM with or without decapeptide DNRDGNVYYF 100 μM): did not display obvious direct or cooperative activation
MucB cleavage by AlgW [2]: could be activated
